Laboratory results: patent US20100130474A1 (WYETH, priority 2008, published 2010)
Structures can show the parent of a compound that is named as a salt. Blank lines part the entries; values can stand above or below the compound they belong to.

Key:
[1] = hygroscopicity / Dynamic Vapor Sorption (DVS) of hydrochloride salt crystal forms; assay type: physicochemical; conditions: for Hygroscopicity: hydrochloride salt of Example 4, result in words; for water uptake: at RH 50%; for water absorbed eventually: RH of 90%
Method: Differential scanning calorimetry data were collected for each solid form achieved using a DSC (TA instruments, model Q1000) under the following parameters: 50 mL/min purge gas (N2); scan range 40 to 200° C., scan rate 10° C./min. Thermogravimetric analysis data were collected using a TGA instruments (Mettler Toledo, model TGA/SDTA 851e) under the following parameters: 40 ml/min purge gas (N2); scan range 30 to 250° C., scan rate 10° C./min. X-ray data were acquired using an X-ray powder diffractometer (Bruker-axs, model D8 advance) having the following parameters: voltage 40 kV, current 40.0 mA, scan range (2) 5 to 30°, scan step size 0.01°, total scan time 33 minutes, VANTEC detector, and antiscattering slit 1 mm. FIGS. 1-7 show characterization data for hydrochloride salt forms.
Dynamic Vapor Sorption (DVS) was done at 26° C.

rat-alpha 7-nAChR = target: T1, rat-alpha 7-nAChR (Rattus norvegicus, UniProt Q05941); experiment: functional FLIPR assay, GH4C1 cells stably expressing alpha7 nAChR (intracellular calcium); assay type: cell-based; conditions: alpha7 nAChR stably expressed in GH4C1 cells; agonist concentration range 0.001 to 30 microM
T1 construct: expressed in transfected cells

[2] = solubility in water of hydrochloride salt crystal forms; assay type: physicochemical; conditions: result in words

T1 sequence (Q05941 23-502): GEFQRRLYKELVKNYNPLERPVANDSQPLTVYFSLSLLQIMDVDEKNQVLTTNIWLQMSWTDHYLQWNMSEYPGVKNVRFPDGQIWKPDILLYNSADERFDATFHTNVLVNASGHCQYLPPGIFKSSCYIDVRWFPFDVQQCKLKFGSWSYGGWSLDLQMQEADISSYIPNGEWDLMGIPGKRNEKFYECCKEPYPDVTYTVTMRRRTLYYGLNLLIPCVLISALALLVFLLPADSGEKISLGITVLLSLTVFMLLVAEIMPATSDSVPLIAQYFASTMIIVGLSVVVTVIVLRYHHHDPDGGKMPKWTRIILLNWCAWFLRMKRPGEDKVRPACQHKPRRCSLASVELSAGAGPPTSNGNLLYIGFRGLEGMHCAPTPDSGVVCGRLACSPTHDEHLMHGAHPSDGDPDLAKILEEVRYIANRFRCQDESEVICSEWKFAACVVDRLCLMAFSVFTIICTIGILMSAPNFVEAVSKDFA

SMILES: COc1ccc(-c2cc(NC(=O)CCCCN3CCCN(C(C)=O)CC3)[nH]n2)cc1 (as salt: hydrochloric acid salt) [5-(4-Acetyl-[1,4]diazepan-1-yl)-pentanoic acid [5-(4-methoxy-phenyl)-2H-pyrazol-3-yl]-amide]
- melting point: 185 °C

SMILES: COc1ccc(-c2cc(NC(=O)CCCCN3CCCN(C(C)=O)CC3)n[nH]2)cc1.Cl [5-(4-acetyl-[1,4]diazepan-1-yl)-pentanoic acid [5-(4-methoxy-phenyl)-1H-pyrazol-3-yl]-amide hydrochloride]
- Hygroscopicity [1]: extreme hygroscopicity

SMILES: COc1ccc(-c2cc(NC(=O)CCCCN3CCCN(C(C)=O)CC3)[nH]n2)cc1 [Crystal Form III, 5-(4-Acetyl-[1,4]diazepan-1-yl)-pentanoic acid [5-(4-methoxy-phenyl)-2H-pyrazol-3-yl]-amide]
- water uptake [1]: (10% water
- Hygroscopicity [1]: Hygroscopic

SMILES: COc1ccc(-c2cc(NC(=O)CCCCN3CCCN(C(C)=O)CC3)[nH]n2)cc1 [Crystal Form V, 5-(4-Acetyl-[1,4]diazepan-1-yl)-pentanoic acid [5-(4-methoxy-phenyl)-2H-pyrazol-3-yl]-amide]
- water uptake [1]: (7% at RH
- Hygroscopicity [1]: Hygroscopic

SMILES: C[N+]1(C)CCN(c2ccccc2)CC1 [DMPP]
- EC50 (rat-alpha 7-nAChR): 0.98 ± 0.47 µM

The next lines start with the values.

- melting point: 132 to 133 °C
SMILES: COc1ccc(-c2cc(NC(=O)CCCCN3CCCN(C(C)=O)CC3)[nH]n2)cc1 (as salt: hydrochloride) [Example 4, 5-(4-Acetyl-[1,4]diazepan-1-yl)-pentanoic acid [5-(4-methoxy-phenyl)-2H-pyrazol-3-yl]-amide]

- solubility in water [2]: considerably soluble
- relative humidity at which the form picks up moisture ([1]; DVS at 26° C.): about 50%
- water absorbed eventually ([1]; DVS at 26° C.): up to 2%
- moisture gain ([1]; at 70-100% RH, lost without significant hysteresis on decreasing RH): at least 12%
- moisture gain ([1]; equilibrated at RH less than or equal to 70%): about 0.5%
- Hygroscopicity [1]: relatively non-hygroscopic
SMILES: COc1ccc(-c2cc(NC(=O)CCCCN3CCCN(C(C)=O)CC3)[nH]n2)cc1 [Form I, 5-(4-acetyl-1,4-diazepan-1-yl)-N-(5-(4-methoxyphenyl)-1H-pyrazol-3-yl)pentanamide]

- solubility in water [2]: considerably soluble
- relative humidity at which the form picks up moisture ([1]; DVS at 26° C.): about 20%
- water held at low RH ([1]; RH 0%, DVS at 26° C.): 2%
- water absorbed eventually ([1]; DVS at 26° C.): up to 7%
- Hygroscopicity [1]: non-hygroscopic
SMILES: COc1ccc(-c2cc(NC(=O)CCCCN3CCCN(C(C)=O)CC3)[nH]n2)cc1 [Form II, 5-(4-acetyl-1,4-diazepan-1-yl)-N-(5-(4-methoxyphenyl)-1H-pyrazol-3-yl)pentanamide]
